Activity calls are given as the source filed them. The calls are words filed in the database; no cut-off is given here.
Assays:
SK-OV-3 [1] = experiment: Cytotoxicity against human SKOV3 cells at < 100 uM by MTS assay; format: functional, cell-based
SK-OV-3 [2] = experiment: Cytotoxicity against human SKOV3 cells at 100 uM by MTS assay; format: functional, cell-based
[3] = Cytotoxicity against human C4-2B cells after 5 days by CellTitre Glo assay; format: functional, cell-based; details: LNCaP C4-2B, 120 h
LNCaP [4] = experiment: Cytotoxicity against human LNCAP cells at >/= 50 uM after 5 days by CellTitre Glo assay; format: functional, cell-based
Sortilin = molecular target: T1, Sortilin (Homo sapiens, UniProt Q99523); experiment: Binding affinity to NTR3 (unknown origin)
T1 sequence (Q99523 whole entry): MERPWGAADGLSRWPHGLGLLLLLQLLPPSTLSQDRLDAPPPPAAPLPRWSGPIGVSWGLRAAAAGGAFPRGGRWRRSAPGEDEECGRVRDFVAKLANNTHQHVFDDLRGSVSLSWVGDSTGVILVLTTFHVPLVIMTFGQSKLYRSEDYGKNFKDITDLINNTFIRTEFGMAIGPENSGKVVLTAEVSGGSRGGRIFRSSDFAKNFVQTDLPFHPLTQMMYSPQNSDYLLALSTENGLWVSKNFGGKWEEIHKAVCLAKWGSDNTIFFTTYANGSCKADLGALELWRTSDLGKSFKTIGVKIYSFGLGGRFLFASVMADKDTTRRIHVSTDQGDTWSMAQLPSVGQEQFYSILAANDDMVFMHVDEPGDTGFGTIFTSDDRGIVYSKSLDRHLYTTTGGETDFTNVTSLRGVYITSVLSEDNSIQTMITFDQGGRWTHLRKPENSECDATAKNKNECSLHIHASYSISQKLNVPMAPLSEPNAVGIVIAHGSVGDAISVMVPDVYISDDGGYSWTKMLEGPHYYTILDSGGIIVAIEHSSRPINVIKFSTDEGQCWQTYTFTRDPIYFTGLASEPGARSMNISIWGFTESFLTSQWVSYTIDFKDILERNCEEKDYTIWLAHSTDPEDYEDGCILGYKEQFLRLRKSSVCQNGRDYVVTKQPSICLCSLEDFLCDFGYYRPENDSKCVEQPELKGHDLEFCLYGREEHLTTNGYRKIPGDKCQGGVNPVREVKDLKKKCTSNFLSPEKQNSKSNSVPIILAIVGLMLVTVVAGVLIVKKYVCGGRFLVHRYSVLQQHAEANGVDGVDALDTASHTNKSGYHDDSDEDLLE

[5] = molecular target: Neurotensin receptor type 1 (Rattus norvegicus, UniProt P20789); experiment: Displacement of [125I]NT from rat NTR1 transfected in mouse LTK cells; format: cell-based
LNCaP C4-2B = experiment: Cytotoxicity against human C4-2B cells at >/= 50 uM after 5 days by CellTitre Glo assay; format: functional, cell-based
LNCaP [6] = experiment: Cytotoxicity against human biculamide-resistant LNCAP cells at >/= 50 uM after 5 days by CellTitre Glo assay; format: functional, cell-based
[7] = molecular target: Neurotensin receptor type 2 (Homo sapiens, UniProt O95665); experiment: Binding affinity to NTR2 (unknown origin)
Sequence of Neurotensin receptor type 2 (O95665 whole entry): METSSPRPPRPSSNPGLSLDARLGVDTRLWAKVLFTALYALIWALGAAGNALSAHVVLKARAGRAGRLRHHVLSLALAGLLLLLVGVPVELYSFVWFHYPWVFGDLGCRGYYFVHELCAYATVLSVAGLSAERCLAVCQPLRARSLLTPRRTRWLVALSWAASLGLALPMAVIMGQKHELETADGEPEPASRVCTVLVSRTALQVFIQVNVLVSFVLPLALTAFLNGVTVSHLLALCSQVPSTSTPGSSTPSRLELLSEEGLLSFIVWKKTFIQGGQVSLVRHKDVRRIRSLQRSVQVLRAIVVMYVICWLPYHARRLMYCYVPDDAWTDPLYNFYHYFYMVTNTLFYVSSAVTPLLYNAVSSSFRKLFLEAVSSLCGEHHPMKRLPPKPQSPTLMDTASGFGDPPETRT

Sequence of Neurotensin receptor type 1 (P20789 whole entry): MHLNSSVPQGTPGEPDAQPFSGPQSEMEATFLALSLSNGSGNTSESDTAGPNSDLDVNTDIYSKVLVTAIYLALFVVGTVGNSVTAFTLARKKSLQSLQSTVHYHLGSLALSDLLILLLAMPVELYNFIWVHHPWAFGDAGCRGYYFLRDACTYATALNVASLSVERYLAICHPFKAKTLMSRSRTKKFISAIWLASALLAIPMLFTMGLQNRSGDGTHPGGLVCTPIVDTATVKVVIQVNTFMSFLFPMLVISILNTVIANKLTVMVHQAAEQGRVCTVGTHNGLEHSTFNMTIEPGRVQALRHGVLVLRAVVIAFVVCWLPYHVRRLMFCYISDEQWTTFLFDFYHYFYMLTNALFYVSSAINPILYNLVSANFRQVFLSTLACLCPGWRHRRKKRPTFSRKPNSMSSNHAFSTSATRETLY

With `COc1cccc(OC)c1-c1cc(C(=O)NC2(C(=O)O)C3CC4CC(C3)CC2C4)nn1-c1ccnc2cc(Cl)ccc12` (centres undefined) [REMINERTANT] as the molecule, how does the Activity (SK-OV-3 [1]) read?
Its Activity is “inactive”.

What about the Activity (SK-OV-3 [2]) of the same molecule?
The Activity was “Active”.

What about the IC50 [3] of the same molecule?
Its IC50 is 30000 nM.

What about the Activity (LNCaP [4]) of the same molecule?
Its Activity is “Active”.

What about the IC50 (Sortilin) of the same molecule?
Its IC50 is 238 nM.

What about the Ki [5] of the same molecule?
Its Ki is 2.6 nM.

And the Activity (LNCaP C4-2B)?
Its Activity is “Active”.

And the Activity (LNCaP [6])?
The Activity was “Active”.

What about the Ki [7] of the same molecule?
Its Ki is 418 nM.

Reference: ChEMBL document CHEMBL2401662, “The synthesis of neurotensin antagonist SR 48692 for prostate cancer research” (Bioorg Med Chem, 2013)
